{"source": "patent US20230340491A1", "about": "“COMPOSITIONS AND METHODS FOR TREATING METABOLIC AND CARDIOVASCULAR DISEASES” (UNIVERSITY OF ROCHESTER, priority 2020, published 2023)", "key": {"HFD-fed C57BL/6J mice": {"test_system": "HFD-fed C57BL/6J mice", "test": "HFD-induced obesity and NAFLD in C57BL/6J mice treated with CRT0066101", "assay_type": "in vivo, mouse", "details": "10 mg/kg/day oral", "description": "The mouse fat and liver tissues from the experimental mice were harvested after oral administration one and a half month."}, "[1]": {"test_system": "C57BL/6NJ mice fed NASH diet", "test": "NASH diet-induced NASH in C57BL/6NJ mice treated with PKD3 inhibitor", "assay_type": "in vivo, mouse", "description": "The NASH diet D09100310, purchased from Research Diet, is a rodent diet with 40 kcal % Fat (mostly palm oil), 20 kcal % fructose and 2% cholesterol.\nFurtherly, to investigate the therapeutic potential of PKD3 inhibitor against NASH, we devised an experimental approach to model advanced NAFLD. […] To explore potential mechanisms by which PKD3 inhibitor treatment protect against diet-induced NASH. We applied RNA sequencing of livers collected at endpoint."}, "[2]": {"details": "100 ug/10 g per day oral, vs vehicle"}, "[3]": {"details": "100 ug/10 g per day oral, 6 weeks"}}}
{"compound": "CC[C@@H](N)CNc1ccnc(-c2cc(-c3cnn(C)c3)ccc2O)n1", "note": "[CRT0066101]", "values": [{"measurement": "body fat (FIG. 3H-3K)", "setting": "WD-fed ApoE-/- mice; [2]", "value": "radically reduced"}, {"measurement": "body weight at end-point (FIG. 3B)", "setting": "WD-fed ApoE-/- mice; [2]", "value": "decreased"}, {"measurement": "liver weight (FIG. 3E)", "setting": "WD-fed ApoE-/- mice; [2]", "value": "decreased"}, {"measurement": "fibrosis score (FIG. 3F)", "setting": "WD-fed ApoE-/- mice; H&E, Sirius Red, Oil Red O staining", "value": "alleviated"}, {"measurement": "BAT (FIG. 3H-3K)", "setting": "WD-fed ApoE-/- mice; treat vs non-treat mice", "value": "no changes"}, {"measurement": "GFAT (FIG. 3H-3K)", "setting": "WD-fed ApoE-/- mice; treat vs non-treat mice", "value": "no changes"}, {"measurement": "hyperlipidemia, serum (FIG. 3G)", "setting": "WD-fed ApoE-/- mice; two months treatment", "value": "decreased"}, {"measurement": "liver coloration (FIG. 3D)", "setting": "WD-fed ApoE-/- mice; yellowish coloration in vehicle mice", "value": "not any yellow color"}, {"measurement": "body weight at end-point (FIG. 2C-2D)", "setting": "HFD-fed C57BL/6J mice; one and a half month, vs vehicle", "value": "dramatically decreased"}, {"measurement": "liver weight (FIG. 2F)", "setting": "HFD-fed C57BL/6J mice; vs vehicle", "value": "significantly reduced"}, {"measurement": "running distance of physical exercise on treadmill (FIG. 2J)", "setting": "HFD-fed C57BL/6J mice; vs vehicle", "value": "increased"}, {"measurement": "serum alanine-aminotransferase (ALT) (FIG. 2I)", "setting": "HFD-fed C57BL/6J mice; vs vehicle", "value": "decreased"}, {"measurement": "serum aspartate aminotransferase (AST) (FIG. 2H)", "setting": "HFD-fed C57BL/6J mice; vs vehicle", "value": "decreased"}, {"measurement": "size of adipocytes (FIG. 2K)", "setting": "HFD-fed C57BL/6J mice; vs vehicle", "value": "considerably diminished"}, {"measurement": "weight of fat tissue (FIG. 2L-2N)", "setting": "HFD-fed C57BL/6J mice; vs vehicle", "value": "considerably diminished"}, {"measurement": "liver histology (FIG. 2G)", "setting": "HFD-fed C57BL/6J mice; vehicle mice had ballooning, hepatocyte death, severe fibrosis, fatty liver", "value": "almost normal liver morphology, little hepatic ballooning and fibrosis as well as lipid deposits"}, {"measurement": "fast blood glucose (FIG. 2R)", "setting": "HFD-fed C57BL/6J mice; HFD-fed mice", "value": "decreased"}, {"measurement": "glucose tolerance, OGTT (FIG. 2P)", "setting": "HFD-fed C57BL/6J mice; HFD-fed mice", "value": "improved"}, {"measurement": "insulin sensitivity, ITT (FIG. 2O)", "setting": "HFD-fed C57BL/6J mice; HFD-fed mice", "value": "improved"}, {"measurement": "non-fast blood glucose (FIG. 2Q)", "setting": "HFD-fed C57BL/6J mice; HFD-fed mice", "value": "decreased"}, {"measurement": "BAT size and weight (FIG. 5I-5K)", "setting": "[1]; [3]", "value": "reduction"}, {"measurement": "NAS (FIG. 5G)", "setting": "[1]; [3]", "value": "significantly decreased"}, {"measurement": "gFAT size and weight (FIG. 5I-5K)", "setting": "[1]; [3]", "value": "reduction"}, {"measurement": "hepatic fibrosis (FIG. 5G)", "setting": "[1]; [3]", "value": "significantly decreased"}, {"measurement": "hepatomegaly induced by NASH diet", "setting": "[1]; [3]", "value": "markedly attenuated"}, {"measurement": "iFAT size and weight (FIG. 5I-5K)", "setting": "[1]; [3]", "value": "reduction"}, {"measurement": "liver fat (FIG. 5G)", "setting": "[1]; [3]", "value": "significantly decreased"}, {"measurement": "liver size (FIG. 5E-5F)", "setting": "[1]; [3]", "value": "dramatically decreased"}, {"measurement": "liver surface (FIG. 5E)", "setting": "[1]; [3]", "value": "more smooth"}, {"measurement": "liver weight (FIG. 5F)", "setting": "[1]; [3]", "value": "dramatically decreased"}, {"measurement": "nonfasting glucose (FIG. 5H)", "setting": "[1]; [3]", "value": "most potent glucose-lowering effect"}, {"measurement": "body weight at endpoint (FIG. 5C-5D)", "setting": "[1]; 100 ug/10 g per day oral, 6 weeks, vs vehicle", "value": "reduced"}, {"measurement": "body weight curve (FIG. 5B)", "setting": "[1]; 12 weeks NASH diet, then 100 ug/10 g per day oral for 6 weeks on NASH diet, vs H2O", "value": "decreased"}]}
